Measured values: patent publication US20160095923A1, “ORAL COMPOSITION COMPRISNG (+)-CATECHIN” (VALORE, priority 2013, published 2016)

Key:
[1] = Bioavailability after oral administration or intravenous injection in Wistar rats (free/total polyphenol in plasma, LC-MS/MS)
Procedure: (§1) The experimental results described below were obtained on the basis of a study carried out in healthy human beings and in healthy Wistar rats weighing approximately 250 grams.
An acclimation period was observed before beginning the experiments.
The rats received an administration per os of a volume of 5 ml of a solution of active product.
(§2) With regard to taking the blood samples from the rats and from the human beings, the blood was collected in tubes internally coated with EDTA and was then centrifuged at 3000 rpm (revolutions per minute) at ambient temperature for 45 min, and then for 15 min at a temperature of 4° C. The plasma was then collected and stored at −70° C. before analysis.
(§3) The analytical technique (LC-MS/MS for Liquid Chromatography coupled to tandem Mass Spectrometry) for measuring the active substance in the blood was based on the method described by Mata-Bilbao et al., published in 2007 in the Journal of Agricultural and Food Chemistry, volume 55, page 8857.
(§4) The free (+)-catechin was extracted from the plasma with a solution of phosphoric acid, EDTA and ascorbic acid and was then purified by SPE (solid phase extraction); in particular, it is an Oasis™ HLB extraction which is analyzed by LC-MS/MS. The quantification was carried out according to a standard calibration procedure with (+/−)-catechin-2,3,4-^13C3 as internal standard (SI).
The procedure is identical with regard to the extraction and the quantification of free quercetin or ECGC in the blood.
With regard to the extraction and quantification of the total (+)-catechin, the procedure is the same as that applied to the free (+)-catechin, with the exception of the fact that an additional step prior to the purification by SPE is carried out.
Each of the mixtures is then solubilized in water.
Each of the mixtures is solubilized in water.

[2] = test system: gastric ulcers in Mastomys; assay: Incidence of gastric ulcers and histamine level in the gastric mucosa in ovalbumin-sensitized Mastomys; type: in vivo; settings: for histamine level (HL) in the gastric mucosa / number of animals exhibiting a gastric ulcer (NU): n = 12
Procedure: Mastomys in fact has a special system of cells which store histamine in the gastric mucosa; these cells can give rise to carcinoid tumors.
In this example, a sample of n=48 Mastomys are sensitized a first time by intraperitoneal injection of 3 μg of ovalbumin dissolved in 0.2 ml of saline solution containing 1 mg of aluminum hydroxide the ovalbumin which brings about anti-immunoglobulin E(IgE) and G(IgG) antibodies. After 7 days, a second injection of 1 mg of ovalbumin in 0.01 ml of saline solution is given in the gastric mucosa at the level of the corpus of the anesthetized animals, which causes an ulcerated lesion at the actual site of the injection.
The 48 rats are divided up into three groups: one of 24 and two of 12 individuals. The first group of 24 individuals (G1) received a placebo (concentrated NaCl solution at 0.15 M).
The histamine level is measured for the G1, G2 and G3 groups on the basis of a sample of n=12 individuals.

[3] = Bioavailability after oral administration in human beings (free monomeric (+)-catechin in plasma, LC-MS/MS); settings: in vivo, po
Procedure: as §1, §2, §3, §4
This complex salt is administered to a group A of 5 healthy volunteers.
This ct parameter makes it possible to calculate, from the data of table 1, the bioavailability of the (+)-catechin expressed in ng h/ml.

[4] = test system: rat skin; assay: Total incorporation and incorporation into collagen of 3H-proline in the skin; type: in vivo, Wistar rats; settings: 100 mg/kg by gavage for 5 days; for level of incorporation into collagen (IC) of 3H-hydroxyproline in rat skin / level of total incorporation (IT) of 3H-hydroxyproline in rat skin: treated subgroup
Procedure: To do this, a study was carried out in vivo on a batch of 24 female Wistar rats weighing from 95 to 115 g, divided into two groups C and D, each of 12 rats. For each group, the radioactive 3H-hydroxyproline, the specific activity of which is 13.6 Ci/10^−3 mol, was administered to all the animals by intraperitoneal injection of proline-L-(5-3H) at a dose, relative to the weight of the individuals, of 1 mCi/kg, which represents an activity in terms of radioactive 3H-proline of 100 μCi/individual.
6 rats of each group received a treatment based on monomeric (+)-catechin by gavage in a proportion of 100 mg/kg for 5 days before sacrifice. […] The group C received monomeric (+)-catechin hydrochlorolysinate, while the group D received monomeric (+)-catechin ascorbolysinate.
In table 8, the level of incorporation is measured by the number of disintegrations of the radioactive 3H-hydroxyproline per minute (dpm) per mg of dry weight. The higher this number, the higher the concentration of 3H-hydroxyproline.
In this comparative example, a group E of 12 Wistar rats weighing from 95 to 115 g, in which radioactive 3H-hydroxyproline, the specific activity of which is 13.6 Ci/10^−3 mol, was administered to all the individuals by intraperitoneal injection of proline-L-(5-3H) at a dose, relative to the weight of the individuals, of 1 mCi/kg, which represents an activity in terms of radioactive 3H-proline of 100 ρCi/individual.
6 rats of each group received a treatment based on pure monomeric (+)-catechin by gavage in a proportion of 100 mg/kg for 5 days before sacrifice.
In table 9, the level of incorporation is measured by the number of disintegrations of the radioactive 3H-hydroxyproline per minute (dpm) per mg of dry weight. The higher this number, the higher the concentration of 3H-hydroxyproline.

[5] = test system: cancer patients (lymphoplasmocytic lymphoma; clear cell renal carcinoma); assay: Treatment of patients suffering from cancer with 500 mg [C:Lys:HCl] complex salt tablet per day; type: in vivo, human; settings: for IgM level in the blood: lymphoplasmocytic lymphoma, 500 mg/day
Procedure: In the first patient a lymphoplasmocytic lymphoma (of Waldenström macroglobulinemia type) was detected during a post-operative blood test on day D0. The diagnosis is based on the electrophoretic detection of a monoclonal peak of immunoglobulins (IgM). This diagnosis was reconfirmed and the peak was assayed during a second analysis using the same detection by electrophoresis.
These immunoglobulins are found at a high concentration in the blood and in the urine. They therefore constitute real tumor markers. The assaying thereof gives an account of the number of sick cells and the extent of the disease and, consequently, makes it possible to monitor its progression under treatment.
Successive blood tests gave the following data for the IgM assay (in mg per 100 ml of plasma):
In the second patient, a left subclavicular cervical adenopathy was first of all detected on day D0. Next, 2 weeks later, a left renal adenocarcinoma was detected for this patient, which was followed by a nephrectomy of the left kidney 3 days after the detection of the adenocarcinoma in this kidney.
Thereafter, on day D0+3 months, a left cervical lymph node dissection is performed on the patient. This procedure was followed by a series of 15 radiotherapy sessions.
Starting from day D0+15 months (that is to say on day DT), the patient was orally administered a tablet of 500 mg of (+)-catechin hydrochlorolysinate per day.

[6] = free catechin, per os, dose equivalent to 100 mg/kg catechin, 5 rats
[7] = oral administration versus placebo

For `Cl.Cl.Cl.Cl.Cl.NCCCCC(N)C(=O)O.NCCCCC(N)C(=O)O.NCCCCC(N)C(=O)O.NCCCCC(N)C(=O)O.NCCCCC(N)C(=O)O.Oc1cc(O)c2c(c1)O[C@H](c1ccc(O)c(O)c1)[C@@H](O)C2.Oc1cc(O)c2c(c1)O[C@H](c1ccc(O)c(O)c1)[C@@H](O)C2` [1:2.5:2.5], the “ct, reported value on the curve in FIG. 5” value (shortened to “ct, reported value”) ([1]; rat, in vivo, 25 mg/kg) was 105 k ng min/ml.
In the case of `Cl.Cl.Cl.NCCCCC(N)C(=O)O.NCCCCC(N)C(=O)O.NCCCCC(N)C(=O)O.Oc1cc(O)c2c(c1)O[C@H](c1ccc(O)c(O)c1)[C@@H](O)C2` [1:3:3], the “ct, calculated value” ([1]; rat, in vivo, 25 mg/kg) is reported as 38 k ng min/ml.
With `Cl.Cl.Cl.Cl.Cl.NCCCCC(N)C(=O)O.NCCCCC(N)C(=O)O.NCCCCC(N)C(=O)O.NCCCCC(N)C(=O)O.NCCCCC(N)C(=O)O.Oc1cc(O)c2c(c1)O[C@H](c1ccc(O)c(O)c1)[C@@H](O)C2` [1:5:5] the “ct, calculated value” ([1]; rat, in vivo, 25 mg/kg) was 26 k ng min/ml.
In the case of `Cl.Cl.Cl.NCCCCC(N)C(=O)O.NCCCCC(N)C(=O)O.NCCCCC(N)C(=O)O.Oc1cc(O)c2c(c1)O[C@H](c1ccc(O)c(O)c1)[C@@H](O)C2.Oc1cc(O)c2c(c1)O[C@H](c1ccc(O)c(O)c1)[C@@H](O)C2` [C:Lys:HCl/1:1.5:1.5], the “ct, reported value” value ([1]; rat, in vivo, 25 mg/kg) is reported as 142 k ng min/ml.
For `O=c1c(O)c(-c2ccc(O)c(O)c2)oc2cc(O)cc(O)c12` [QP, quercetin, reference compound], the “Δct^q (difference of ct to QP)” value ([1]; Wistar, rat, in vivo, 25 mg/kg) was 0%.
In the case of `N=C(N)NCCCC(N)C(=O)O.Oc1cc(O)c2c(c1)O[C@H](c1ccc(O)c(O)c1)[C@@H](O)C2` [[C:Arg/1:1], Complex of Monomeric (+)-Catechin and of Arginine in a Molar Equivalence Ratio of 1:1], the “Δct (difference of ct to CP)” value ([1]; free catechin, per os, dose equivalent to 100 mg/kg catechin) is reported as “+21%” and the “T (max)” value [1, 6] is reported as 1 h.
With `NCCCCC(N)C(=O)O.Oc1cc(O)c2c(c1)O[C@H](c1ccc(O)c(O)c1)[C@@H](O)C2` [[C:Lys/1:1], Complex of Monomeric (+)-Catechin and of Lysine in a Molar Equivalence Ratio of 1:1] the “T (max)” value [1, 6] was 1 h.
In the case of `NCCCCC(N)C(=O)O.NCCCCC(N)C(=O)O.Oc1cc(O)c2c(c1)O[C@H](c1ccc(O)c(O)c1)[C@@H](O)C2` [[C:Lys/1:2], Complex of Monomeric (+)-Catechin and of Lysine in a Molar Equivalence Ratio of 1:2], the “T (max)” value [1, 6] is reported as 2 h, the “Δct (difference of ct to CP)” value ([1]; free catechin, per os, equivalent to 25 mg/kg (comparative example 4)) is reported as “+17%” and the “T (max)” value ([1]; free catechin, per os, equivalent to 25 mg/kg, 3 rats (comparative example 4)) is reported as 1 h. For the same compound, the “Δct (difference of ct to CP)” value ([1]; total (+)-catechin, per os, equivalent to 25 mg/kg) was “+24%” and the “T (max)” value ([1]; total (+)-catechin, per os, equivalent to 25 mg/kg, 3 rats) was 1 h.
With `Cl.Cl.NCCCCC(N)C(=O)O.NCCCCC(N)C(=O)O.Oc1cc(O)c2c(c1)O[C@H](c1ccc(O)c(O)c1)[C@@H](O)C2` [[C:Lys:HCl/1:2:2]] the “total plasma concentration (ct) of free monomeric (+)-catechin” value ([1]; rat, in vivo, iv, 25 mg/kg) was 87 970 ng min/ml, the “total plasma concentration (ct) of total monomeric (+)-catechin” value ([1]; rat, in vivo, iv, 25 mg/kg) was 277 040 ng min/ml and the “total plasma concentration (ct) of total monomeric (+)-catechin” value ([1]; rat, in vivo, po, 25 mg/kg) was 479 585 ng min/ml.
In the case of `Cl.Cl.NCCCCC(N)C(=O)O.NCCCCC(N)C(=O)O.O=c1c(O)c(-c2ccc(O)c(O)c2)oc2cc(O)cc(O)c12` [[Q:Lys:HCl/1:2:2], reference compound], the “Δct^q (difference of ct to QP)” value ([1]; rat, in vivo, 25 mg/kg) is reported as “+18%”.
In the case of `Cl.NCCCCC(N)C(=O)O.Oc1cc(O)c2c(c1)O[C@H](c1ccc(O)c(O)c1)[C@@H](O)C2` [monomeric (+)-catechin hydrochlorolysinate], the “ct, reported value” value ([1]; rat, in vivo, 25 mg/kg) is reported as 127 k ng min/ml, the “histamine level (HL) in the gastric mucosa” value ([2]; G2, per os 2×300 mg a day) is reported as 37.91 ± 3.73 10^−6 mg/kg of protein and the “number of animals exhibiting a gastric ulcer (NU)” value ([2]; G2, per os 2×300 mg a day) is reported as 5. For the same compound, the “histamine level (HL) in the gastric mucosa” value ([2]; G3, intraperitoneally 100 mg) was 34.98 ± 3.52 10^−6 mg/kg of protein, the “number of animals exhibiting a gastric ulcer (NU)” value ([2]; G3, intraperitoneally 100 mg) was 6 and the “decrease in the histamine level in the gastric mucosa” value [2, 7] was −18%. For the same compound, the “decrease in the number of animals exhibiting a gastric ulcer” value [2, 7] was −72%, the “T (max)” value [3] was 0.5 h and the “increase in c (max) compared with pure monomeric (+)-catechin” value [3] was “+103%”. The “increase in speed of passage into blood, T (max), compared with pure monomeric (+)-catechin” value [3] was “+166%”, the “increase in the level of incorporation versus control” value [4] was “+15%” and the “level of incorporation into collagen (IC) of 3H-hydroxyproline in rat skin” value [4] was 1343 ± 48 dpm/mg. The “level of total incorporation (IT) of 3H-hydroxyproline in rat skin” value [4] was 6248 ± 124 dpm/mg, the “IgM level in the blood” value ([5]; first patient, DT + 4 months) was 2417 mg/100 ml and the “IgM level in the blood” value ([5]; first patient, DT + 9 months) was 2410 mg/100 ml. The “IgM level in the blood” value ([5]; first patient, DT + 15 months) was 2412 mg/100 ml, the “clinical course of IgM level under treatment” value ([5]; first patient, taken for a year and a half) was “stabilization below the maximum detected on day DT” and the clinical outcome ([5]; second patient, clear cell renal carcinoma, 500 mg/day from DT) was “stabilized the patient's condition”.
For `O=C(O[C@@H]1Cc2c(O)cc(O)cc2O[C@@H]1c1cc(O)c(O)c(O)c1)c1cc(O)c(O)c(O)c1` [pure EGCG, epigallocatechin gallate, reference compound], the “plasma levels measured (below reliable limits of detection)” value ([1]; free EGCG, per os, equivalent to 25 mg/kg polyphenol) was “below 250 ng/ml”.
In the case of monomeric (+)-catechin ascorbolysinate, the “increase in the level of incorporation versus control” value [4] is reported as “+14%”, the “level of incorporation into collagen (IC) of 3H-hydroxyproline in rat skin” value [4] is reported as 1117 ± 49 dpm/mg and the “level of total incorporation (IT) of 3H-hydroxyproline in rat skin” value [4] is reported as 5112 ± 259 dpm/mg.
